Measured values reported in publication PMC12645437, “Orthogonal IMiD-Degron Pairs Induce Selective Protein Degradation in Cells” (ACS Chemical Biology, 2025).

Tested on: Jurkat cells
Assay: Compound cellular stability HPLC assay
Type: in vitro ADME, human
Settings: 25 μM
Description: We hypothesized that the time-dependent variation in DC50 values for compound 23 might result from instability in the cellular environment or export from the cells, leading to a lower cellular concentration after the 24 h period. To assess its cellular stability, we incubated Jurkat cells with 25 μM of compound 23 and analyzed how much compound was recovered from the cells after 0.5, 6, and 24 h (Figure S21) using HPLC analysis. […] The data also indicate that compound 23 is being metabolized, transported out of the cells, or both, over a 24 h period, explaining the increase in DC50 value by this time point (Figure G,H).
Figure S21. Assessing crude cellular stability of compound in 23 in mammalian cells using HPLC.
Jurkat cells were incubated with 25 µM of compound 23 for 0.5 h, 6 h, or 24 h. Cells were washed
with PBS and lysed with MeOH, clarified, and analyzed by HPLC. Compound 23 presence in the
lysate was assessed using HPLC at a UV/Vis absorbance of 190 nm. After 0.5 h we observed 130
incubating at rt for 3 minutes, then reading using an EnVision multimode plate reader
(PerkinElmer). The data have been expressed as % of DMSO control. Three biological repeats
were carried out for this assay, with each biological replicate plate comprising three replicate
Compound Cellular Stability HPLC Assay
Analytical HPLC assay to identify compound 23 in mammalian cell lysate. Jurkat cells were
cultured as described previously and seeded at a density of 2.5 × 10^5 cells per well in a 6-well
plate. Cells were treated with 25 µM of compound 23 or DMSO, keeping the final concentration
either 0.5 h, 6 h, or 24 h. Cells were then pelleted, supernatant removed, and cells were washed
twice with 1 mL of PBS, centrifuging each time at 6,500 rpm on a tabletop centrifuge to avoid
prematurely lysing the cells. PBS was then removed, and cells were lysed with 100 µL of HPLC- […]
0.1% formic acid. […] Samples were read using a Shimadzu system […]
processed using LabSolutions (Version 5.117). Sample components were measured using the UV
absorbance at 190 nm and 254 nm. The reported analysis is the UV absorbance at 190 nm. […]

## CN1CCN(c2ccc3c(c2)C(=O)N(C2CCC(=O)NC2=O)C3=O)CC1 (stereo not drawn) [Compound 23]
After 0.5 h
  compound recovered from cells (HPLC): 130 nM
After 6 h
  compound recovered from cells (HPLC): 30 nM
After 24 h
  compound recovered from cells (HPLC): almost no compound remaining
